Inhibition data for 29 compounds are collected here from patent US9834550B2, “Pyridopyrimidinone compounds for modulating the catalytic activity of histone lysine demethylases (KDMs)” (Dong-A Socio Holdings Co., Ltd., priority 2014, dated 2017).

Structures are written as SMILES.

For the test, the target named is T1, Recombinant human JARID1B/KDM5B (Homo sapiens, UniProt Q9UGL1).
T1 construct: purchased Active Motif 31432; host or cells: Sf9 insect cells
The test is described as follows: LANCE Ultra TR-FRET demethylase assay with FLAG-tagged JARID1B. The conditions noted are these: 100 nM compound; 500 nM biotinylated H3K4me3 peptide substrate. It is filed as biochemical. From the text:
FLAG-tagged JARID1B (also known as KDM5B) protein was screened against more than 170 compounds. For this compound screening, LANCE Ultra time-resolved fluorescence resonance energy transfer (TR-FRET) assay was employed using an europoium (Eu)-labeled antibody that can specifically recognize mono- or dimethylated peptides (H3K4me2/1) and ULight-streptavidin (ULight-SA), a small molecule fluorescent dye. When irradiated at 340 nm, the energy from the Eu donor is transferred to the ULight acceptor dye which, in turn, emits light primarily at 665 nm. The ratio between the intensity of primary emission at 665 nm and that of secondary emission at 590 nm was used to quantify the level of lysine methylation. As JARID1B removes more methyl moieties from tri-methylated substrate peptides (H3K4me3), the ratio increases until the enzyme reaction is terminated. In case, therefore, the compounds disrupt the enzymatic activity completely, the ratio becomes equal to a background value.
Recombinant human JARID1B/KDM5B (accession number NP_006609) of molecular weight 179.9 KDa was expressed in Sf9 insect cells and contains an N-terminal FLAG tag. The enzyme was obtained from Active Motif (Catalog No. 31432). The tri-methylated histone substrate peptide of purity greater than 95% was a synthetic peptide in which the first 21 amino acids correspond to the human histone H3 sequence with three extra amino acids and a biotin motif (GGK-biotin) linked to the C-terminus [sequence: ART-K (Me3)-QTARKSTGGKAPRKQLA-GGK-biotin-OH], (AnaSpec, Fremont, Calif. Catalog. No. ANA-1413). The reference inhibitory compound tranylcypromine (or trans-2-phenylcyclopropylamine hydrochloride, also known as, 2-PCPA) was purchased from Sigma (St. Louis, Mo. Cat. no. P8511). ULight-labeled streptavidin (ULight-SA, Catalog no. TRF0102), Eu-W1024-labeled anti-methyl-Histone H3 Lysine 4 (H3K4me1-2) Antibody (Catalog no. TRF0402), and LANCE detection buffer 10× (Catalog no. CR97-100) were obtained from PerkinElmer (Montreal, Quebec, Canada). The TR-FRET experiments were carried out in white, low-volume 384-wellplates purchased from PerkinElmer (ProxiPlate-384 Plus, Catalog no. 6008280).
The TR-FRET signal was measured in the presence both of the bio-H3K4me3 peptide and FLAG-JARID1B by detecting any H3K4me2/1 peptide produced in the assay system. Assays using only the bio-H3K4me2 peptide were served as a positive control. Robust enzymatic progressions were observed by using JARID1B at concentrations ranging from 10 to 30 nM. In a typical TR-FRET experiment, JARID1B was pre-incubated with or without 20 uM, 1 uM, or 0.1 uM of test-compounds (containing 1% DMSO final) for […]. The enzymatic reactions were initiated by the addition of 500 nM biotinylated H3K4me3 peptide substrate plus 500 uM of 2-OG, 25 uM Fe(II) and 2 mM ascorbate. The reaction buffer also contained 50 mM Hepes (pH7.5), 0.01% (v/v) Tween 20, and 50 mM NaCl. The reaction mixture was incubated for […] at room temperature before reading on an EnVision plate reader (PerkinElmer, Waltham, Mass.).
(In general: In TR-FRET formats the signal depends on donor and acceptor labels being close together.)

T1 sequence (Q9UGL1 whole entry): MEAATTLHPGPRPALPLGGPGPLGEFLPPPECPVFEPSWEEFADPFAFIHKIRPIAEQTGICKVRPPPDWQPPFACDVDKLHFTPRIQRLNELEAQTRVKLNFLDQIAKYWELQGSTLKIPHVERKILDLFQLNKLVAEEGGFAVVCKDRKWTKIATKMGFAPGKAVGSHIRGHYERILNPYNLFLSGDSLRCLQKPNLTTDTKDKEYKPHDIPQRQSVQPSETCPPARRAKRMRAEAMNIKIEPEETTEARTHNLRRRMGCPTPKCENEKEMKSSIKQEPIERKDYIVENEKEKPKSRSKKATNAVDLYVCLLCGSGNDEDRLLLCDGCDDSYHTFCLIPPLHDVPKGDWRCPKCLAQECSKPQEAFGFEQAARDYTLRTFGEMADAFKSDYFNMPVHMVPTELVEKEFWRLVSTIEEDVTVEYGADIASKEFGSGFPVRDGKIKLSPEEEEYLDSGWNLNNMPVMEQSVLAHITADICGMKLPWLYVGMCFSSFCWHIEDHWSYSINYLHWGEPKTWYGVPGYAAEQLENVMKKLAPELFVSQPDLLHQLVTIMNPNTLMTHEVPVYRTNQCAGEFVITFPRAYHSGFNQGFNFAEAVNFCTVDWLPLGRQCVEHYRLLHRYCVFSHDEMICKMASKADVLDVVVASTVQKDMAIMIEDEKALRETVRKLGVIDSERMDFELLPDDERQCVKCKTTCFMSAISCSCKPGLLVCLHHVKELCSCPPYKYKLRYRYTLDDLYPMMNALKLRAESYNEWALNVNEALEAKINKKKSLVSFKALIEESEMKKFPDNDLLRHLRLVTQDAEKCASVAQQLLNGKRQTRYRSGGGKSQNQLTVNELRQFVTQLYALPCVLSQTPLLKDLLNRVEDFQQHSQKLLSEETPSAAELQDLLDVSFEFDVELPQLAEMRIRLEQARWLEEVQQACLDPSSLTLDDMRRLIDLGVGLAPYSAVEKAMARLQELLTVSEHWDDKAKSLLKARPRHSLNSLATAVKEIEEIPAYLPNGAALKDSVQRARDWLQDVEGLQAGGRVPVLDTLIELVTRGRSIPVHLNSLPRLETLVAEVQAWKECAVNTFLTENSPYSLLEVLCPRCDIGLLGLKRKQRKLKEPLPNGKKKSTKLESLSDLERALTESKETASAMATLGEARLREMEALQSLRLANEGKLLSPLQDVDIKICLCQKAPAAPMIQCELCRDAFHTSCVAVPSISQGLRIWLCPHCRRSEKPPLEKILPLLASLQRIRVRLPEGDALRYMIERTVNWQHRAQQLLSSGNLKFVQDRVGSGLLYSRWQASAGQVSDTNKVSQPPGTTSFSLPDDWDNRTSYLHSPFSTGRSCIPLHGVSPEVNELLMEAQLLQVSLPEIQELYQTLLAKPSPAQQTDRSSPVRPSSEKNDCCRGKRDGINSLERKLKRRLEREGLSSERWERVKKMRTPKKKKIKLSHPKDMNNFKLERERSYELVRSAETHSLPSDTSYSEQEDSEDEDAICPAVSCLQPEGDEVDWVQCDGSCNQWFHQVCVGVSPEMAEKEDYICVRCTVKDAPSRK

`O=C(CNCc1nccc2c(=O)[nH]c(COc3ccc(F)c(Cl)c3)nc12)N[C@H]1CC[C@H](N2CCCC2)O1` (relative stereo) [Example 233, 2-(((2-((3-chloro-4-fluorophenoxy)methyl)-4-oxo-3,4-dihydropyrido[3,4-d]pyrimidin-8-yl)methyl)amino)-N-(trans-5-(pyrrolidin-1-yl)tetrahydrofuran-2-yl)acetamide]: the inhibition – broadly, the change of the read-out against control, counted positive when it falls – at 0.1 µM is over 50%.
As for `COc1cc(OCc2nc3cnccc3c(=O)[nH]2)cc(OC)c1OC` [Example 39, 2-((3,4,5-trimethoxyphenoxy)methyl)pyrido[3,4-d]pyrimidin-4(3H)-one], the figure is under 20%; as for `O=C(NCCN1CCOCC1)c1cccc(OCc2nc3cnccc3c(=O)[nH]2)c1` [Example 40, N-(2-morpholinoethyl)-3-((4-oxo-3,4-dihydropyrido[3,4-d]pyrimidin-2-yl)methoxy)benzamide], under 20%.
In the case of `O=c1[nH]c(COc2cccc(CNCc3ccccc3)c2)nc2cnccc12` [Example 42, 2-((3-((benzylamino)methyl)phenoxy)methyl)pyrido[3,4-d]pyrimidin-4(3H)-one], the inhibition at 0.1 µM is under 20%.
The same measure for `CCCOC1CCN(Cc2cccc(OCc3nc4cnccc4c(=O)[nH]3)c2)CC1` [Example 43, 2-((3-((4-propoxypiperidin-1-yl)methyl)phenoxy)methyl)pyrido[3,4-d]pyrimidin-4(3H)-one]: 20 to 50%; for `O=c1[nH]c(COc2cccc(CNC3CCOCC3)c2)nc2cnccc12` [Example 44, 2-((3-(((tetrahydro-2H-pyran-4-yl)amino)methyl)phenoxy)methyl)pyrido[3,4-d]pyrimidin-4(3H)-one]: under 20%; for `O=c1[nH]c(COc2cccc(CNCCN3CCOCC3)c2)nc2cnccc12` [Example 45, 2-((3-(((2-morpholinoethyl)amino)methyl)phenoxy)methyl)pyrido[3,4-d]pyrimidin-4(3H)-one]: under 20%.
As for `O=C(NCCC1CCNCC1)c1cc(OCc2nc3cnccc3c(=O)[nH]2)ccc1Cl` [Example 46, 2-chloro-5-((4-oxo-3,4-dihydropyrido[3,4-d]pyrimidin-2-yl)methoxy)-N-(2-(piperidin-4-yl)ethyl)benzamide], the figure is 20 to 50%.
The same measure for `O=c1[nH]cnc2c(CNCC3CCCCC3)nccc12` [Example 85, 8-(((cyclohexylmethyl)amino)methyl)pyrido[3,4-d]pyrimidin-4(3H)-one]: under 20%.
`CCN(CC)CCCCNCc1nccc2c(=O)[nH]cnc12` [Example 86, 8-(((4-(diethylamino)butyl)amino)methyl)pyrido[3,4-d]pyrimidin-4(3H)-one]: the inhibition at 0.1 µM is under 20%.
The same measure for `O=C1CCCN1CCCNCc1nccc2c(=O)[nH]cnc12` [Example 88, 8-(((3-(2-oxopyrrolidin-1-yl)propyl)amino)methyl)pyrido[3,4-d]pyrimidin-4(3H)-one]: under 20%.
The same measure for `CN1CCC(CNCc2nccc3c(=O)[nH]cnc23)C1` (centres unmarked) [Example 92, 8-((((1-methylpyrrolidin-3-yl)methyl)amino)methyl)pyrido[3,4-d]pyrimidin-4(3H)-one]: 20 to 50%; for `O=c1[nH]cnc2c(CNCC3CCNCC3)nccc12` [Example 93, 8-(((piperidin-4-ylmethyl)amino)methyl)pyrido[3,4-d]pyrimidin-4(3H)-one]: 20 to 50%; for `CC(NCc1nccc2c(=O)[nH]cnc12)C1CCNCC1` (centres unmarked) [Example 94, 8-(((1-(piperidin-4-yl)ethyl)amino)methyl)pyrido[3,4-c]pyrimidin-4(3H)-one]: under 20%.
As for `CN1CCC(CNCc2nccc3c(=O)[nH]cnc23)CC1` [Example 95, 8-((((1-methylpiperidin-4-yl)methyl)amino)methyl)pyrido[3,4-d]pyrimidin-4(3H)-one], the figure is 20 to 50%.
On to `O=c1[nH]cnc2c(CNCC3CCN(Cc4ccccc4)CC3)nccc12` [Example 96, 8-((((1-benzylpiperidin-4-yl)methyl)amino)methyl)pyrido[3,4-d]pyrimidin-4(3H)-one], for which the inhibition at 0.1 µM lay in the range of 20 to 50%.
For the compound `CN1CCC(N2CCC(CNCc3nccc4c(=O)[nH]cnc34)CC2)CC1` [Example 97, 8-((((1′-methyl-[1,4′-bipiperidin]-4-yl)methyl)amino)methyl)pyrido[3,4-d]pyrimidin-4(3H)-one], the inhibition at 0.1 µM fell in the range of 20 to 50%.
As to `O=c1[nH]cnc2c(CNC[C@@H]3CCCNC3)nccc12` [Example 98, (R)-8-(((piperidin-3-ylmethyl)amino)methyl)pyrido[3,4-d]pyrimidin-4(3H)-one], the inhibition at 0.1 µM was under 20%.
As for `O=c1[nH]cnc2c(CNC[C@H]3CCCNC3)nccc12` [Example 99, (S)-8-(((piperidin-3-ylmethyl)amino)methyl)pyrido[3,4-d]pyrimidin-4(3H)-one], the figure is 20 to 50%; as for `CN1CCCC(CNCc2nccc3c(=O)[nH]cnc23)C1` (centres unmarked) [Example 100, 8-((((1-methylpiperidin-3-yl)methyl)amino)methyl)pyrido[3,4-d]pyrimidin-4(3H)-one], over 50%.
For `O=c1[nH]cnc2c(CNCC3CCCN(Cc4ccccc4)C3)nccc12` (centres unmarked) [Example 101, 8-((((1-benzylpiperidin-3-yl)methyl)amino)methyl)pyrido[3,4-d]pyrimidin-4(3H)-one], the inhibition at 0.1 µM fell in the range of 20 to 50%.
As for `O=c1[nH]c(COc2ccccc2Cl)nc2c(CNCC3CCN(Cc4ccccc4)CC3)nccc12` [Example 105, 8-((((1-benzylpiperidin-4-yl)methyl)amino)methyl)-2-((2-chlorophenoxy)methyl)pyrido[3,4-d]pyrimidin-4(3H)-one], the figure is over 50%; as for `O=c1[nH]c(COc2cccc(Cl)c2)nc2c(CNCC3CCN(Cc4ccccc4)CC3)nccc12` [Example 106, 8-((((1-benzylpiperidin-4-yl)methyl)amino)methyl)-2-((3-chlorophenoxy)methyl)pyrido[3,4-d]pyrimidin-4(3H)-one], over 50%.
The same measure for `O=c1[nH]c(COc2ccc(Cl)cc2)nc2c(CNCC3CCN(Cc4ccccc4)CC3)nccc12` [Example 107, 8-((((1-benzylpiperidin-4-yl)methyl)amino)methyl)-2-((4-chlorophenoxy)methyl)pyrido[3,4-d]pyrimidin-4(3H)-one]: over 50%.
As for `O=c1[nH]c(COc2ccc(Br)cc2)nc2c(CNCC3CCN(Cc4ccccc4)CC3)nccc12` [Example 108, 8-((((1-benzylpiperidin-4-yl)methyl)amino)methyl)-2-((4-bromophenoxy)methyl)pyrido[3,4-d]pyrimidin-4(3H)-one], the figure is over 50%.
As for `O=c1[nH]c(COc2cccnc2)nc2c(CNCC3CCN(Cc4ccccc4)CC3)nccc12` [Example 109, 8-((((1-benzylpiperidin-4-yl)methyl)amino)methyl)-2-((pyridin-3-yloxy)methyl)pyrido[3,4-d]pyrimidin-4(3H)-one], the inhibition at 0.1 µM lay within 20 to 50%.
As for `O=c1[nH]c(COc2ccncc2)nc2c(CNCC3CCN(Cc4ccccc4)CC3)nccc12` [Example 110, 8-((((1-benzylpiperidin-4-yl)methyl)amino)methyl)-2-((pyridin-4-yloxy)methyl)pyrido[3,4-d]pyrimidin-4(3H)-one], the figure is over 50%.
As to `O=c1[nH]c(COc2ccc(Cc3ccccc3)cc2)nc2c(CNCC3CCN(Cc4ccccc4)CC3)nccc12` [Example 111, 2-((4-benzylphenoxy)methyl)-8-((((1-benzylpiperidin-4-yl)methyl)amino)methyl)pyrido[3,4-d]pyrimidin-4(3H)-one], the inhibition at 0.1 µM was over 50%.
As for `O=c1[nH]c(COc2cc(C(F)(F)F)ccc2Cl)nc2c(CNCC3CCNCC3)nccc12` [Example 112, 2-((2-chloro-5-(trifluoromethyl)phenoxy)methyl)-8-(((piperidin-4-ylmethyl)amino)methyl)pyrido[3,4-d]pyrimidin-4(3H)-one], the figure is 20 to 50%.
